Results from EPA's CvTdb concentration-time database (doi:10.1093/toxsci/kfy020).

Tested on: rat
Assay: concentration in plasma after dosing
Conditions: dosed: Ondansetron, male, Sprague-Dawley

Cc1nccn1CC1CCc2c(c3ccccc3n2C)C1=O (stereo not given) [Ondansetron]
concentration in plasma [ng/mL]
Conditions	1.0000000000 mg/kg	4.0000000000 mg/kg	8.0000000000 mg/kg	20.0000000000 mg/kg
0.05 h, iv	781	3050	6280	17600
0.05 h, oral	–	70	100	491
0.25 h, iv	231	830	1860	5550
0.5 h, iv	129	429	960	2930
0.5 h, oral	–	49.1	92	288
0.75 h, iv	72.6	256	597	1860
1 h, iv	47.1	176	379	1260
1 h, oral	–	23.5	40.6	165
1 min, iv	16200	37100	104000	175000
1.25 h, iv	31.1	112	246	813
1.5 h, iv	–	75.7	176	561
1.5 h, oral	–	–	21.4	82.7
2 h, iv	–	38.3	87.4	308
2 h, oral	–	–	–	46.8
2.5 h, iv	–	–	44.2	184
3 h, iv	–	–	23.3	101
4 h, iv	–	–	–	39.1
5 min, oral	–	244	249	1110
7 min, iv	420	1480	3240	10100
10 min, oral	–	171	298	808
20 min, oral	–	83.7	138	441
40 min, oral	–	39.6	70	255
50 min, oral	–	30.2	57.9	197
